In patent US20210323950A1, “HERBICIDALLY ACTIVE BICYCLIC BENZOYLPYRAZOLES” (Bayer Aktiengesellschaft, priority 2018, published 2021):

Tested on: Cyperus esculentus (CYPES)
Experiment: Pre-emergence herbicidal action against CYPES
Assay type: in vivo
Details: 320 g/ha, scored visually after about 3 weeks vs untreated controls
Text: CYPES: Cyperus esculentus 1. Pre-Emergence Herbicidal Action and Crop Plant Compatibility Seeds of monocotyledonous and dicotyledonous weed plants and crop plants are placed in plastic or organic planting pots and covered with soil. The compounds of the invention, formulated in the form of wettable powders (WP) or as emulsion concentrates (EC), are then applied onto the surface of the covering soil as aqueous suspension or emulsion with addition of 0.5% additive at a water application rate of […] (converted). After the treatment, the pots are placed in a greenhouse and kept under good growth conditions for the trial plants. After about 3 weeks, the effect of the preparations is scored visually in comparison with untreated controls as percentages. The tables below show the herbicidal activity of numerous compounds according to the invention against important harmful plants. For example, 100% activity=the plants have died, 0% activity=like control plants.

For `Cn1ncc(C(=O)c2ccc(C(F)(F)F)c3c2OC[S+]3[O-])c1O` (stereo not shown) [Example 1-28], the “Pre-emergence action against CYPES” value was 90%.
